From the NIST ThermoML archive (doi:10.1021/je800463k)

Assay: mn = molality of the nth substance listed, in mol/kg
Details: 101 kPa, Liquid; for electrical conductivity: Frequency=0.001 MHz, Alternating current cell with electrodes; for speed of sound: Frequency=2 MHz; for mass density: Pycnometric method

CC(=O)[O-].CC(=O)[O-].[Mg+2] [magnesium acetate] + CO
Details	electrical conductivity [S/m]	mass density [kg/m3]	speed of sound [m/s]	viscosity [mPa·s]
273.15 K, m1 = 0.0059	0.0325	–	1185.9	–
273.15 K, m1 = 0.0093	0.055	–	1186.1	–
273.15 K, m1 = 0.014	–	–	–	0.821
273.15 K, m1 = 0.018	0.0621	–	1186.2	0.8229
273.15 K, m1 = 0.0339	0.0796	–	–	0.8417
273.15 K, m1 = 0.053	0.0922	–	1190.2	–
273.15 K, m1 = 0.0646	0.0965	–	–	0.8642
273.15 K, m1 = 0.0855	0.106	–	1190.1	–
273.15 K, m1 = 0.1012	–	–	–	0.9108
273.15 K, m1 = 0.1024	0.1148	–	1194.5	–
273.15 K, m1 = 0.13	–	–	–	0.9308
273.15 K, m1 = 0.1402	0.1289	–	1194.6	0.9493
273.15 K, m1 = 0.1455	0.1307	–	1192.6	–
273.15 K, m1 = 0.17	–	–	–	0.9637
273.15 K, m1 = 0.1837	0.1414	–	1195.3	–
273.15 K, m1 = 0.2003	–	–	–	0.9889
273.15 K, m1 = 0.2192	–	–	1196.7	–
273.15 K, m1 = 0.2422	0.1507	–	1196.9	1.042
273.15 K, m1 = 0.2453	–	–	–	1.036
273.15 K, m1 = 0.2889	0.1565	–	1197.1	1.091
273.15 K, m1 = 0.3042	–	–	1199.6	–
278.15 K, m1 = 0.0059	0.0329	–	1169.1	–
278.15 K, m1 = 0.0093	0.0556	–	1169.4	–
278.15 K, m1 = 0.014	–	–	–	0.7547
278.15 K, m1 = 0.018	0.0627	–	1170	0.7565
278.15 K, m1 = 0.0339	0.0807	–	–	0.7732
278.15 K, m1 = 0.053	0.0937	–	1172.6	–
278.15 K, m1 = 0.0646	0.0989	–	–	0.7927
278.15 K, m1 = 0.0855	0.1084	–	1176.6	–
278.15 K, m1 = 0.1012	–	–	–	0.8332
278.15 K, m1 = 0.1024	0.1174	–	1176.8	–
278.15 K, m1 = 0.13	–	–	–	0.8509
278.15 K, m1 = 0.1402	0.1326	–	1177.7	0.867
278.15 K, m1 = 0.1455	0.135	–	1175	–
278.15 K, m1 = 0.17	–	–	–	0.8812
278.15 K, m1 = 0.1837	0.1448	–	1179.3	–
278.15 K, m1 = 0.2003	–	–	–	0.9025
278.15 K, m1 = 0.2192	–	–	1181	–
278.15 K, m1 = 0.2422	0.153	–	1179.9	0.9469
278.15 K, m1 = 0.2453	–	–	–	0.9437
278.15 K, m1 = 0.2889	0.1605	–	1180.9	0.9892
278.15 K, m1 = 0.3042	–	–	1181.7	–
283.15 K, m1 = 0.0059	0.0334	–	1152.8	–
283.15 K, m1 = 0.0093	0.0562	–	1153.2	–
283.15 K, m1 = 0.014	–	–	–	0.6979
283.15 K, m1 = 0.018	0.0634	–	1154.7	0.6998
283.15 K, m1 = 0.0339	0.0818	–	–	0.7143
283.15 K, m1 = 0.053	0.0954	–	1156.3	–
283.15 K, m1 = 0.0646	0.1008	–	–	0.7304
283.15 K, m1 = 0.0855	0.1089	–	1156.5	–
283.15 K, m1 = 0.1012	–	–	–	0.7669
283.15 K, m1 = 0.1024	0.1198	–	1160.3	–
283.15 K, m1 = 0.13	–	–	–	0.7824
283.15 K, m1 = 0.1402	0.1355	–	1160.4	0.7965
283.15 K, m1 = 0.1455	0.1388	–	1158.5	–
283.15 K, m1 = 0.17	–	–	–	0.8105
283.15 K, m1 = 0.1837	0.1465	–	1161.7	–
283.15 K, m1 = 0.2003	–	–	–	0.8289
283.15 K, m1 = 0.2192	–	–	1162.8	–
283.15 K, m1 = 0.2422	0.1656	–	1163.1	0.8664
283.15 K, m1 = 0.2453	–	–	–	0.8643
283.15 K, m1 = 0.2889	0.1642	–	1163.5	0.8961
283.15 K, m1 = 0.3042	–	–	1165.8	–
288.15 K, m1 = 0.0059	0.0341	–	1135.7	–
288.15 K, m1 = 0.0093	0.0566	–	1136.1	–
288.15 K, m1 = 0.014	–	–	–	0.6458
288.15 K, m1 = 0.018	0.0642	–	1137.4	0.6478
288.15 K, m1 = 0.0339	0.0831	–	–	0.6606
288.15 K, m1 = 0.053	0.0969	–	1138.1	–
288.15 K, m1 = 0.0646	0.1033	–	–	0.6743
288.15 K, m1 = 0.0855	0.1114	–	1139.7	–
288.15 K, m1 = 0.1012	–	–	–	0.7063
288.15 K, m1 = 0.1024	0.1227	–	1142.7	–
288.15 K, m1 = 0.13	–	–	–	0.7206
288.15 K, m1 = 0.1402	0.139	–	1144.3	0.7286
288.15 K, m1 = 0.1455	0.1428	–	1141.6	–
288.15 K, m1 = 0.17	–	–	–	0.7465
288.15 K, m1 = 0.1837	0.1496	–	1143.8	–
288.15 K, m1 = 0.2003	–	–	–	0.7639
288.15 K, m1 = 0.2192	–	–	1147.5	–
288.15 K, m1 = 0.2422	0.1673	–	1146.4	0.7865
288.15 K, m1 = 0.2453	–	–	–	0.7929
288.15 K, m1 = 0.2889	0.1692	–	1147	0.8205
288.15 K, m1 = 0.3042	–	–	1149.4	–
293.15 K, m1 = 0.0059	0.0349	–	1119	–
293.15 K, m1 = 0.0093	0.0575	–	1118.9	–
293.15 K, m1 = 0.014	–	–	–	0.6
293.15 K, m1 = 0.018	0.0649	–	1120.9	0.6022
293.15 K, m1 = 0.0339	0.0843	–	–	0.6132
293.15 K, m1 = 0.053	0.0985	–	1121.1	–
293.15 K, m1 = 0.0646	0.1055	–	–	0.6249
293.15 K, m1 = 0.0855	0.1149	–	1122.8	–
293.15 K, m1 = 0.1012	–	–	–	0.6535
293.15 K, m1 = 0.1024	0.1258	–	1126	–
293.15 K, m1 = 0.13	–	–	–	0.666
293.15 K, m1 = 0.1402	0.1426	–	1128.4	0.6731
293.15 K, m1 = 0.1455	0.1463	–	1124.4	–
293.15 K, m1 = 0.17	–	–	–	0.6902
293.15 K, m1 = 0.1837	0.1536	–	1127.3	–
293.15 K, m1 = 0.2003	–	–	–	0.7039
293.15 K, m1 = 0.2192	–	–	1130.4	–
293.15 K, m1 = 0.2422	0.1693	–	1129.6	0.7255
293.15 K, m1 = 0.2453	–	–	–	0.7305
293.15 K, m1 = 0.2889	0.1735	–	1131.7	0.7548
293.15 K, m1 = 0.3042	–	–	1132.6	–
296.65 K, m1 = 0.1112	–	798.51	–	–
297.55 K, m1 = 0.2192	–	803.53	–	–
298.15 K, m1 = 0.0059	0.0355	–	1102.5	–
298.15 K, m1 = 0.0093	0.058	–	1102	–
298.15 K, m1 = 0.014	–	–	–	0.5583
298.15 K, m1 = 0.018	0.0656	–	1103.5	0.5605
298.15 K, m1 = 0.0339	0.0856	–	–	0.5703
298.15 K, m1 = 0.053	0.1	–	1104.6	–
298.15 K, m1 = 0.0646	0.108	–	–	0.5802
298.15 K, m1 = 0.0855	0.1183	–	1106.7	–
298.15 K, m1 = 0.1012	–	–	–	0.6059
298.15 K, m1 = 0.1024	0.1284	–	1109.8	–
298.15 K, m1 = 0.13	–	–	–	0.617
298.15 K, m1 = 0.1402	0.1458	–	1111.6	0.6234
298.15 K, m1 = 0.1455	0.1485	–	1108.4	–
298.15 K, m1 = 0.17	–	–	–	0.6396
298.15 K, m1 = 0.1837	0.1578	–	1110.9	–
298.15 K, m1 = 0.2003	–	–	–	0.6529
298.15 K, m1 = 0.2192	–	–	1113.4	–
298.15 K, m1 = 0.2422	0.1717	–	1112.7	0.6701
298.15 K, m1 = 0.2453	–	–	–	0.6746
298.15 K, m1 = 0.2889	0.1776	–	1115.2	0.6956
298.15 K, m1 = 0.3042	–	–	1116.1	–
298.5 K, m1 = 0.0646	–	793.38	–	–
299 K, m1 = 0.0339	–	790.63	–	–
299.1 K, m1 = 0.014	–	788.94	–	–
299.25 K, m1 = 0.1798	–	800.6	–	–
299.3 K, m1 = 0.2192	–	801.81	–	–
299.35 K, m1 = 0.1112	–	795.95	–	–
